Experimental data published in ChEMBL document CHEMBL5465560, “Selectivity Literature for EUbOPEN Chemogenomic Library” (2024).
Each block holds one molecule with its values, some of them ahead of it.

Legend:
[1] = target: T1, Dual specificity tyrosine-phosphorylation-regulated kinase 3 (Homo sapiens) (UniProt O43781); assay: Selectivity interaction (Kinase panel (Z-LYTE Assay)) EUB0001632a DYRK3; settings: at 10 µM
T1 sequence (whole entry): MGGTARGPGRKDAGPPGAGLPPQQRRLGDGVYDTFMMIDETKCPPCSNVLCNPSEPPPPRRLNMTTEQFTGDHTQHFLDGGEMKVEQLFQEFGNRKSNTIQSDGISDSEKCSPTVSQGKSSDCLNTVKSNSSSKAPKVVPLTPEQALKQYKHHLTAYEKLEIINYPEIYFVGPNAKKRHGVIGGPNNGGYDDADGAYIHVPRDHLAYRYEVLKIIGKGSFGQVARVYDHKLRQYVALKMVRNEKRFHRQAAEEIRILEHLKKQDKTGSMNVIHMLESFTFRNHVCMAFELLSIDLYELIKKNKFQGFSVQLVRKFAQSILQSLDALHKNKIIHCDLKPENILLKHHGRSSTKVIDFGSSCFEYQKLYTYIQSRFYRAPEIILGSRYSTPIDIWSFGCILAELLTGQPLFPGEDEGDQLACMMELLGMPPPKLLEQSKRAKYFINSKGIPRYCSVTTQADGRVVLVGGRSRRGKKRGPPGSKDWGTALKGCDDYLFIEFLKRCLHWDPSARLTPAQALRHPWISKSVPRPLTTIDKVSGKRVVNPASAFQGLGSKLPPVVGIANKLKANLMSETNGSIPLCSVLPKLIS

[2] = target: T2, Ephrin type-A receptor 3 (Homo sapiens) (UniProt P29320); assay: Selectivity interaction (KinomeScan (DiscoverX)) EUB0000607a EPHA3; settings: at 10 µM
T2 sequence (whole entry): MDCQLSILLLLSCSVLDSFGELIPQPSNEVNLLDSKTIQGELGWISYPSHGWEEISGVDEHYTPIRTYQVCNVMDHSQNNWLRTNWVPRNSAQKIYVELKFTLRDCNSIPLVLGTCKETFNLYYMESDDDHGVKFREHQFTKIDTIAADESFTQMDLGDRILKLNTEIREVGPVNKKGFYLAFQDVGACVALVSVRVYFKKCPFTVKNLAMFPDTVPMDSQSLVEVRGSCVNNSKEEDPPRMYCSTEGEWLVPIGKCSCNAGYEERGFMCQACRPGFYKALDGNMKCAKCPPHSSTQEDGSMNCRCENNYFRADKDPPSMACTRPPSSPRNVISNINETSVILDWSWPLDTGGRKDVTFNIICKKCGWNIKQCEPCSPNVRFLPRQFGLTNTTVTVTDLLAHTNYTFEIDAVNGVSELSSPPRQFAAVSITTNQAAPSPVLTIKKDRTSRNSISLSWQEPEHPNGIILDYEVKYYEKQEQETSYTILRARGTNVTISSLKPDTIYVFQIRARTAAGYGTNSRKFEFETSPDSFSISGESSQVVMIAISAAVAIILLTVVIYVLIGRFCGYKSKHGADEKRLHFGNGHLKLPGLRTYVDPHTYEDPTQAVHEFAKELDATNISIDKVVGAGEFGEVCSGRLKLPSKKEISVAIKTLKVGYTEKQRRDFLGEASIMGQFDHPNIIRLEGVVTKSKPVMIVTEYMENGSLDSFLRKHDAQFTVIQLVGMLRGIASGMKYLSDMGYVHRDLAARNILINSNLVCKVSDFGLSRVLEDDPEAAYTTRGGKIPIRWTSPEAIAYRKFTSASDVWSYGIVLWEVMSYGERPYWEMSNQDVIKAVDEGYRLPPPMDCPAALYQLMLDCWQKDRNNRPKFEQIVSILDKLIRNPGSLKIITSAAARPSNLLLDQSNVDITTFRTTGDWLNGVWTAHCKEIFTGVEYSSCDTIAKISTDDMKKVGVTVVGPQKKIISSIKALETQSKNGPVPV

Adenosine receptor A2a = Adenosine receptor A2a (Homo sapiens, UniProt P29274); assay: Selectivity interaction (Panel of kinases, GPCRs, ion channels and transporters (enzymatic assay)) EUB0000266bCl ADORA2A
Adenosine receptor A2a, sequence (P29274 whole entry): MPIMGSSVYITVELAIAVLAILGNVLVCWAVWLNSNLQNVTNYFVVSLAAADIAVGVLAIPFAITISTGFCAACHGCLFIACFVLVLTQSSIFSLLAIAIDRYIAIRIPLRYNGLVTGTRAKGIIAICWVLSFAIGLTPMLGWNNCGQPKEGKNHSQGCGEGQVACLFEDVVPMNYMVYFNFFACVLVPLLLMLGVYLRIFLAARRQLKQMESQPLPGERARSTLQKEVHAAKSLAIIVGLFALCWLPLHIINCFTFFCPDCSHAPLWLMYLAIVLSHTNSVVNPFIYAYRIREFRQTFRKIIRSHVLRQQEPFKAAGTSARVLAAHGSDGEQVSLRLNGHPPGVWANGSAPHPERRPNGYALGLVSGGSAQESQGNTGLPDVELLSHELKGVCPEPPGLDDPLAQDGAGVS

[3] = target: Mitogen-activated protein kinase 1 (Homo sapiens, UniProt P28482); assay: Selectivity interaction (ActivX KiNativ screen (kinase selectivity in THP-1 cell lysates)) EUB0000639a MAPK1; type: subcellular; settings: lysate, at 5 µM
Mitogen-activated protein kinase 1, sequence (P28482 whole entry): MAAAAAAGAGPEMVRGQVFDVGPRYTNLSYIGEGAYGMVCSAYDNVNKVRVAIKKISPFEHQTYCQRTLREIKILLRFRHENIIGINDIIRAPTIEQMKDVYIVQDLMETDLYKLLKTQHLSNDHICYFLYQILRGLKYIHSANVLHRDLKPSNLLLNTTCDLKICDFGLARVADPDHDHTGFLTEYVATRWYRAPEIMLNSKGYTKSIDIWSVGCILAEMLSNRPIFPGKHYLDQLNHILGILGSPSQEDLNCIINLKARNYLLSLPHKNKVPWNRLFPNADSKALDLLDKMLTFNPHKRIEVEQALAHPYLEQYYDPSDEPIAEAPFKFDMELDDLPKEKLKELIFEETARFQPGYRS

[4] = target: T3, Serine/threonine-protein kinase LATS2 (Homo sapiens) (UniProt Q9NRM7); assay: Selectivity interaction (KinomeScan (DiscoverX)) EUB0000045b LATS2
T3 sequence (whole entry): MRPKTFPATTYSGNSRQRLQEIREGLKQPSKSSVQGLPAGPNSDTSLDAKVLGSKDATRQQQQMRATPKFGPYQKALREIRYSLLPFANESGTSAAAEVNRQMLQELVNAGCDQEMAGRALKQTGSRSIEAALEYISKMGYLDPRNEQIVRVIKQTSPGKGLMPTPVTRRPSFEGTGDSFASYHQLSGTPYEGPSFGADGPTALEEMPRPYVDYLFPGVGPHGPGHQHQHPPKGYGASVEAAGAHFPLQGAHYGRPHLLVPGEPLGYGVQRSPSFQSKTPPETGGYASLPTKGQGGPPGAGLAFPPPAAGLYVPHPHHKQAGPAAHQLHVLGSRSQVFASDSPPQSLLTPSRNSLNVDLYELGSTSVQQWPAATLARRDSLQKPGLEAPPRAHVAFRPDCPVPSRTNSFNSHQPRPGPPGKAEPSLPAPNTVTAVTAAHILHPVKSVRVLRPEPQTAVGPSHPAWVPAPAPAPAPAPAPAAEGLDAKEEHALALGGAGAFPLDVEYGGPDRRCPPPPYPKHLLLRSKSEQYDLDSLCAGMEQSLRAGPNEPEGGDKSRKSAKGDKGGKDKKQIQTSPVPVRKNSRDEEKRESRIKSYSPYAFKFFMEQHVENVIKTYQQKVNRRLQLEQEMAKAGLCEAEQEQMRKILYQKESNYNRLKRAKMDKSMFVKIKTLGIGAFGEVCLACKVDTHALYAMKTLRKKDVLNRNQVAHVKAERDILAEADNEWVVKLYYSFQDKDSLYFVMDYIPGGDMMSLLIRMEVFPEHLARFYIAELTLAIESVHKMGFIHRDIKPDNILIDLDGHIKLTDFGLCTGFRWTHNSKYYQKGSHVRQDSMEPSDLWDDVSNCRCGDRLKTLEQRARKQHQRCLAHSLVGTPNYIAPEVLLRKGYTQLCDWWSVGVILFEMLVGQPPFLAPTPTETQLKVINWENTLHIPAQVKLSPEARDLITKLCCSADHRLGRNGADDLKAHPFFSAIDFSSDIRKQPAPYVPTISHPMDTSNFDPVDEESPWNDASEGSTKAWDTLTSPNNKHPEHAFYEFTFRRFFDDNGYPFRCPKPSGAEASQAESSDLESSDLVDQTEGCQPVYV

Structure (SMILES): CNC(=O)Nc1ccc(-c2nc(N3CC4CCC(C3)O4)c3cnn(C4CCC5(CC4)OCCO5)c3n2)cc1
- % of control [2]: 100%

Structure (SMILES): C=CC(=O)Nc1cc(-n2c(=O)ccc3cnc4ccc(-c5ccc(NS(C)(=O)=O)cc5)cc4c32)ccc1C
- % of control ([4]; at 1 µM): 100%
- % of control ([4]; at 10 µM): 81%

Other lines, results leading:

- % of control [1]: 10.6%
Structure (SMILES): Cn1cc(-n2cnc3c(NCc4nc5cc(Cl)c(Cl)cc5[nH]4)nc(N4CCOCC4)nc32)cn1

- pXC50 (Adenosine receptor A2a): < 4.5 M
Structure (SMILES): CCn1c(-c2nc3cc(C(=O)N4CCCC(N)C4)ccc3n2C)cc2ccccc21 (stereo unspecified)

- % of inhibition [3]: 25.2%
Structure (SMILES): CC[C@@H]1[C@H](F)C(=O)N[C@@H]1COc1nccc2cc(C(N)=O)c(OC)cc12 [ZIMLOVISERTIB]
